Measurements from US12168012B2, “NLRP3 inflammasome inhibitors” (Novartis AG, priority 2018, dated 2024).
Structures can show the parent of a compound that is named as a salt.

Legend:
[1] = system: NF-kB-dependent TNF-α secretion; test: TNF-α secretion assay (counterscreen); type: cell-based; details: Homo sapiens; THP-1 cells, Pam3CSK4-stimulated, 3 hours, HTRF
Procedure: Monocytic THP-1 cells were maintained according to providers' instructions in RPMI media as described above. Undifferentiated cells were plated at 50,000 cells per well in a 384-well flat-bottom cell culture plates (Greiner, #781986), and allowed to rest overnight. Experimental compounds were prepared and added as described above. TNF-α secretion was triggered by the addition of either 1 μg/mL LPS (Sigma, #L4391) or 100 ng/mL Pam3CSK4 (Invivogen, #tlrl-pms) depending on the experiment, and cells were incubated for 3 hours. 10 μL supernatant was removed, and TNF-α levels were monitored using an HTRF assay (CisBio, #62TNFPEC) according to manufacturers' instructions. Viability was monitored as described above.
IC50 values were calculated from the plot of percentage of inhibition versus the inhibitor concentration by a logistics fit according to: y=A2+(A1−A2)/(1+(x/IC50)^p) where y is the %-inhibition at the inhibitor concentration, x. A1 is the lowest inhibition value, i.e. 0%, and A2 the maximum inhibition value, i.e. 100%. The exponent, p, is the Hill coefficient. The curve fitting was conducted with an internally developed software suite. […]

NLRP3 inflammasome = test: IL-1β secretion assay; type: cell-based; details: Homo sapiens, THP-1, 3 h, PMA-differentiated THP-1 cells, 15 μM nigericin, HTRF
Procedure: 10 μL supernatant was removed, and IL-1p levels were monitored using an HTRF assay (CisBio, #62IL1PEC) according to manufacturers' instructions. Viability and pyroptosis was monitored with the addition of PrestoBlue cell viability reagent (Life Technologies, #A13261) directly to the cell culture plate.
IC50 values were calculated from the plot of percentage of inhibition versus the inhibitor concentration by a logistics fit according to: y=A2+(A1−A2)/(1+(x/IC50)^p) where y is the %-inhibition at the inhibitor concentration, x. A1 is the lowest inhibition value, i.e. 0%, and A2 the maximum inhibition value, i.e. 100%. The exponent, p, is the Hill coefficient. The curve fitting was conducted with an internally developed software suite.
NLRP3-dependent IL-1β secretion was stimulated in PMA-differentiated THP-1 cells by the addition of nigericin, and cytokines were measured in the […] after 3 hours. As discussed above, activation of the NLRP3 inflammasome requires both an NF-kB-dependent priming step and the addition of a NLRP3 activator.

CC(C)c1nn(CC(=O)NC[C@H](C)O)c(=O)c2cc3sc(Cl)cc3n12 [Ex 69, (S)-2-(2-Chloro-5-isopropyl-8-oxothieno[2′,3′:4,5]pyrrolo[1,2-d][1,2,4]triazin-7(8H)-yl)-N-(2-hydroxypropyl)acetamide] gave an IC50 [1] greater than 100000 nM and an IC50 (NLRP3 inflammasome) of 58.8 nM.
With CC(C)c1nn(CC(=O)N[C@@H]2CCC(=O)NC2)c(=O)c2cc3sc(F)cc3n12 [Ex 33, (R)-2-(2-Fluoro-5-isopropyl-8-oxothieno[2′,3′:4,5]pyrrolo[1,2-d][1,2,4]triazin-7(8H)-yl)-N-(6-oxopiperidin-3-yl)acetamide] the IC50 [1] was greater than 100000 nM and the IC50 (NLRP3 inflammasome) was 108 nM.
With CN1CCC[C@@H](NC(=O)Cn2nc(C(C)(C)O)n3c(cc4sc(Cl)cc43)c2=O)C1 [Ex 60, (R)-2-(2-Chloro-5-(2-hydroxypropan-2-yl)-8-oxothieno[2′,3′:4,5]pyrrolo[1,2-d][1,2,4]triazin-7(8H)-yl)-N-(1-methylpiperidin-3-yl)acetamide] the IC50 [1] was greater than 100000 nM.
CC(O)c1nn(CC(=O)N[C@@H]2CCC[C@@](C)(O)C2)c(=O)c2cc3sc(Cl)cc3n12 (stereo partly drawn) [Ex 45, 2-(2-Chloro-5-(1-hydroxyethyl)-8-oxothieno[2′,3′:4,5]pyrrolo[1,2-d][1,2,4]triazin-7(8H)-yl)-N-((1R,3R)-3-hydroxy-3-methylcyclohexyl)acetamide] showed an IC50 [1] greater than 100000 nM and an IC50 (NLRP3 inflammasome) of 244 nM.
Molecule CC(C)c1nn(CC(=O)NC2CCOCC2)c(=O)c2cc3sc(Cl)cc3n12 [Ex 75, 2-(2-Chloro-5-isopropyl-8-oxothieno[2′,3′:4,5]pyrrolo[1,2-d][1,2,4]triazin-7(8H)-yl)-N-(tetrahydro-2H-pyran-4-yl)acetamide] has an IC50 [1] greater than 100000 nM.
Molecule CC(C)c1nn(CC(=O)Nc2cccnc2)c(=O)c2cc3sc(Cl)cc3n12 [Ex 2, 2-(2-Chloro-5-isopropyl-8-oxothieno[2′,3′:4,5]pyrrolo[1,2-d][1,2,4]triazin-7(8H)-yl)-N-(pyridin-3-yl)acetamide] has an IC50 [1] greater than 100000 nM.
With CC(C)c1nn(CC(=O)N[C@@H]2CCCN(C3CC3)C2)c(=O)c2cc3scnc3n12 [Ex 127, (R)-N-(1-Cyclopropylpiperidin-3-yl)-2-(5-isopropyl-8-oxothiazolo[5′,4′:4,5]pyrrolo[1,2-d][1,2,4]triazin-7(8H)-yl)acetamide] the IC50 [1] was greater than 100000 nM and the IC50 (NLRP3 inflammasome) was 4.2 nM.
With CC(C)c1nn(CC(=O)N[C@@H]2CCC[C@H](O)C2)c(=O)c2cc3scnc3n12 [Ex 91, N-((1R,3S)-3-Hydroxycyclohexyl)-2-(5-isopropyl-8-oxothiazolo[5′,4′:4,5]pyrrolo[1,2-d][1,2,4]triazin-7(8H)-yl)acetamide] the IC50 [1] was greater than 100000 nM and the IC50 (NLRP3 inflammasome) was 1.9 nM.
In the case of CC(C)c1nn(CC(=O)N[C@@H]2CCC(=O)NC2)c(=O)c2cc3sc(Cl)cc3n12 [Ex 19, (R)-2-(2-Chloro-5-isopropyl-8-oxothieno[2′,3′:4,5]pyrrolo[1,2-d][1,2,4]triazin-7(8H)-yl)-N-(6-oxopiperidin-3-yl)acetamide], the IC50 [1] is reported as greater than 100000 nM and the IC50 (NLRP3 inflammasome) is reported as 48.6 nM.
With O=C(Cn1nc(C2CC2)n2c(cc3sc(Cl)cc32)c1=O)N[C@@H]1CCCNC1 [Ex 36, (R)-2-(2-Chloro-5-cyclopropyl-8-oxothieno[2′,3′:4,5]pyrrolo[1,2-d][1,2,4]triazin-7(8H)-yl)-N-(piperidin-3-yl)acetamide hydrochloride] the IC50 [1] was greater than 100000 nM and the IC50 (NLRP3 inflammasome) was 109 nM.
CC(O)c1nn(CC(=O)Nc2ccncn2)c(=O)c2cc3sc(Cl)cc3n12 (stereo not shown) [Ex 3, 2-(2-Chloro-5-(1-hydroxyethyl)-8-oxothieno[2′,3′:4,5]pyrrolo[1,2-d][1,2,4]triazin-7(8H)-yl)-N-(pyrimidin-4-yl)acetamide] showed an IC50 [1] greater than 100000 nM and an IC50 (NLRP3 inflammasome) of 228 nM.
Molecule CC(C)c1nn(CC(=O)N[C@@H]2CCCNC2)c(=O)c2cc3sc(F)cc3n12 [Ex 31, (R)-2-(2-Fluoro-5-isopropyl-8-oxothieno[2′,3′:4,5]pyrrolo[1,2-d][1,2,4]triazin-7(8H)-yl)-N-(piperidin-3-yl)acetamide hydrochloride] has an IC50 [1] greater than 100000 nM and an IC50 (NLRP3 inflammasome) of 90.5 nM.
CN1C[C@H](NC(=O)Cn2nc(C(C)(C)O)n3c(cc4sc(Cl)cc43)c2=O)CCC1=O [Ex 29, (R)-2-(2-Chloro-5-(2-hydroxypropan-2-yl)-8-oxothieno[2′,3′:4,5]pyrrolo[1,2-d][1,2,4]triazin-7(8H)-yl)-N-(1-methyl-6-oxopiperidin-3-yl)acetamide] was tested, and the IC50 [1] was greater than 100000 nM and the IC50 (NLRP3 inflammasome) was 35.7 nM.
Work on CC(C)(O)c1nn(CC(=O)N[C@@H]2CCC[C@@](C)(O)C2)c(=O)c2cc3sc(Cl)cc3n12 [Ex 83, 2-(2-Chloro-5-(2-hydroxypropan-2-yl)-8-oxothieno[2′,3′:4,5]pyrrolo[1,2-d][1,2,4]triazin-7(8H)-yl)-N-((1R,3R)-3-hydroxy-3-methylcyclohexyl)acetamide] yielded an IC50 [1] greater than 100000 nM and an IC50 (NLRP3 inflammasome) of 16.2 nM.
COC(=O)C12CC(NC(=O)Cn3nc(C(C)C)n4c(cc5sc(Cl)cc54)c3=O)(C1)C2 [Ex 113, Methyl 3-(2-(2-chloro-5-isopropyl-8-oxothieno[2′,3′:4,5]pyrrolo[1,2-d][1,2,4]triazin-7(8H)-yl)acetamido)bicyclo[1.1.1]pentane-1-carboxylate] showed an IC50 [1] greater than 100000 nM and an IC50 (NLRP3 inflammasome) of 5.8 nM.
CC(C)c1nn(CC(=O)NCCC(C)(C)O)c(=O)c2cc3sc(Cl)cc3n12 [Ex 77, 2-(2-Chloro-5-isopropyl-8-oxothieno[2′,3′:4,5]pyrrolo[1,2-d][1,2,4]triazin-7(8H)-yl)-N-(3-hydroxy-3-methylbutyl)acetamide] was tested, and the IC50 [1] was greater than 100000 nM and the IC50 (NLRP3 inflammasome) was 14 nM.
CC(C)c1nn(CC(=O)N[C@@H]2CCCN(C3CCC3)C2)c(=O)c2cc3sc(Cl)cc3n12 [Ex 125, (R)-2-(2-Chloro-5-isopropyl-8-oxothieno[2′,3′:4,5]pyrrolo[1,2-d][1,2,4]triazin-7(8H)-yl)-N-(1-cyclobutylpiperidin-3-yl)acetamide] gave an IC50 [1] greater than 33000 nM.
CC(O)c1nn(CC(=O)N[C@@H]2CCCN(C)C2)c(=O)c2cc3sc(Cl)cc3n12 (stereo partly drawn) [Ex 44, 2-(2-Chloro-5-(1-hydroxyethyl)-8-oxothieno[2′,3′:4,5]pyrrolo[1,2-d][1,2,4]triazin-7(8H)-yl)-N-((R)-1-methylpiperidin-3-yl)acetamide] was tested, and the IC50 [1] was greater than 100000 nM and the IC50 (NLRP3 inflammasome) was 112 nM.
CC(C)c1nn(CC(=O)NC23CC(N)(C2)C3)c(=O)c2cc3sc(Cl)cc3n12 [Ex 115, N-(3-Aminobicyclo[1.1.1]pentan-1-yl)-2-(2-chloro-5-isopropyl-8-oxothieno[2′,3′:4,5]pyrrolo[1,2-d][1,2,4]triazin-7(8H)-yl)acetamide] showed an IC50 [1] greater than 100000 nM and an IC50 (NLRP3 inflammasome) of 172 nM.
With O=C(Cn1nc(C2CC2)n2c(cc3sc(F)cc32)c1=O)N[C@@H]1CCCNC1 [Ex 34, (R)-2-(5-Cyclopropyl-2-fluoro-8-oxothieno[2′,3′:4,5]pyrrolo[1,2-d][1,2,4]triazin-7(8H)-yl)-N-(piperidin-3-yl)acetamide] the IC50 [1] was greater than 100000 nM and the IC50 (NLRP3 inflammasome) was 80.3 nM.
In the case of CC(C)c1nn(CC(=O)N[C@@H]2CCCN(C3CC3)C2)c(=O)c2cc3sc(Cl)cc3n12 [Ex 124, (R)-2-(2-Chloro-5-isopropyl-8-oxothieno[2′,3′:4,5]pyrrolo[1,2-d][1,2,4]triazin-7(8H)-yl)-N-(1-cyclopropylpiperidin-3-yl)acetamide], the IC50 [1] is reported as greater than 100000 nM and the IC50 (NLRP3 inflammasome) is reported as 0.9 nM.
CC(C)c1nn(CC(=O)N[C@@H]2CCCNC2)c(=O)c2cc3sc(Cl)cc3n12 [Ex 10, (R)-2-(2-Chloro-5-isopropyl-8-oxothieno[2′,3′:4,5]pyrrolo[1,2-d][1,2,4]triazin-7(8H)-yl)-N-(piperidin-3-yl)acetamide] showed an IC50 [1] greater than 100000 nM.
For CC(C)c1nn(CC(=O)N[C@@H]2CCCN(C)C2)c(=O)c2cc3sc(Cl)cc3n12 [Ex 17, (R)-2-(2-Chloro-5-isopropyl-8-oxothieno[2′,3′:4,5]pyrrolo[1,2-d][1,2,4]triazin-7(8H)-yl)-N-(1-methylpiperidin-3-yl)acetamide], the IC50 [1] was greater than 100000 nM.
Molecule CC(C)c1nn(CC(=O)N[C@@H]2CCCN(C)C2)c(=O)c2cc3scnc3n12 [Ex 48, (R)-2-(5-Isopropyl-8-oxothiazolo[5′,4′:4,5]pyrrolo[1,2-d][1,2,4]triazin-7(8H)-yl)-N-(1-methylpiperidin-3-yl)acetamide] has an IC50 [1] greater than 100000 nM.
Molecule CC(C)c1nn(CC(=O)N[C@H]2CCCN(C)C2)c(=O)c2cc3sc(Cl)cc3n12 [Ex 18, (S)-2-(2-Chloro-5-isopropyl-8-oxothieno[2′,3′:4,5]pyrrolo[1,2-d][1,2,4]triazin-7(8H)-yl)-N-(1-methylpiperidin-3-yl)acetamide] has an IC50 [1] greater than 100000 nM.
Molecule CC(C)c1nn(CC(=O)Nc2cccnc2)c(=O)c2cc3sc(F)cc3n12 [Ex 5, 2-(2-Fluoro-5-isopropyl-8-oxothieno[2,3′:4,5]pyrrolo[1,2-d][1,2,4]triazin-7(8H)-yl)-N-(pyridin-3-yl)acetamide] has an IC50 [1] greater than 100000 nM.
